Test results from US12403137B2, “Compounds and methods of use” (Tango Therapeutics, Inc., priority 2019, dated 2025).

Key:
PRMT5 [1] = target: T1, PRMT5 (Homo sapiens, UniProt O14744); assay: PRMT5 inhibition assay with SAM as cofactor; type: biochemical; details: against PRMT5 in the presence of SAM as cofactor
T1 construct: purchased Viva (custom protein)
From the text: (§1) The Ki values can be calculated from the IC50 values as described in the Examples section. As detailed in the Examples section, for the assay performed in the presence of SAM, IC50=Ki×1.5 (Ki=IC50/1.5). For the assay performed in the presence of MTA, IC50=Ki×13.5 (Ki=IC50/13.5). Column 6 indicates the ratio between the Ki of compounds in the presence of SAM and the Ki of compounds in the presence of MTA

PRMT5 [2] = target: T1, PRMT5; assay: PRMT5 inhibition assay with no cofactor; type: biochemical; details: against PRMT5 with no cofactor; read-out: No Co-factor IC50
PRMT5 [3] = target: T1, PRMT5; assay: PRMT5 inhibition assay with MTA as cofactor; type: biochemical; details: for IC50: against PRMT5 with MTA as cofactor; for SAM/MTA Ratio: ratio of Ki in the presence of SAM to Ki in the presence of MTA, Ki=IC50/1.5 (SAM), Ki=IC50/13.5 (MTA)
From the text: as §1

[4] = test system: HAP1 MTAP-intact cell line; assay: SDMA in-cell western assay, HAP1 MTAP-intact; type: cell-based; details: Homo sapiens
How it was run: (§2)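 Symmetric dimethylarginine (SDMA) levels were measured by in-cell western in an isogenic HAP1 pair. One line expresses endogenous MTAP and the other is MTAP-null, with an IC50 derived in each.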

[5] = test system: HAP1 MTAP-deleted cell line; assay: SDMA in-cell western assay, HAP1 MTAP-deleted; type: cell-based; details: for IC50: Homo sapiens, HAP1 MTAP-deleted (MTAP-null) cell line; for MTAP Intact/Deleted Ratio: IC50 ratio HAP1 MTAP-intact / HAP1 MTAP-deleted, >=3 fold considered MTAP-selective
How it was run: as §2

T1 sequence (O14744 whole entry): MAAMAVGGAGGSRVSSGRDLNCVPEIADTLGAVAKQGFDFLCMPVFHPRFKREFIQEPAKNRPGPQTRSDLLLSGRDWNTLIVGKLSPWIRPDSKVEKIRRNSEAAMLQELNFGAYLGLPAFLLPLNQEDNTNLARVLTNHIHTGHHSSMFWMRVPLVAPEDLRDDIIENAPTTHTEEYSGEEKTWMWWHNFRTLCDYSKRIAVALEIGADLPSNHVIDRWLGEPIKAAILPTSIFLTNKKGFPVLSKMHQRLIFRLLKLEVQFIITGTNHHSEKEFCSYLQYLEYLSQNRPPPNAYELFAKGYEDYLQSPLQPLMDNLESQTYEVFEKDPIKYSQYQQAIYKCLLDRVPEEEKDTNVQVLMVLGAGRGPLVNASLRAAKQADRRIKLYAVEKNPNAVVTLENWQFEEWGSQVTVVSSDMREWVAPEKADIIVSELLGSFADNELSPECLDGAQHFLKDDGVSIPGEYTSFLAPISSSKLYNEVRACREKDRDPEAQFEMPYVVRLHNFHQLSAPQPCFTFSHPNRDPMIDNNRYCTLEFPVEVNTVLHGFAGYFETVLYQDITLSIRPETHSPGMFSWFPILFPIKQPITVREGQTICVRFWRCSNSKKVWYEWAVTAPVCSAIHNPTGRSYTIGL
T1 sequence (Q9BQA1 whole entry partner): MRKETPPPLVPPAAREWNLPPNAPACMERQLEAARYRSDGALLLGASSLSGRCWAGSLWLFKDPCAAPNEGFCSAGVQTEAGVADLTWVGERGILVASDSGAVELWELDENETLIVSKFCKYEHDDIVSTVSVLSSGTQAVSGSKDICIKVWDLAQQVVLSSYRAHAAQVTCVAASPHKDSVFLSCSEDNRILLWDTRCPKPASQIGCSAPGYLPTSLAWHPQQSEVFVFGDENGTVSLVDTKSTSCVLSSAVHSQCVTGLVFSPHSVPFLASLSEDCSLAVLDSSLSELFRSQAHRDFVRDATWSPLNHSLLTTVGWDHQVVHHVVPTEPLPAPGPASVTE

Row | SMILES | IC50 (PRMT5 [1]) | IC50 (PRMT5 [2]) | IC50 (PRMT5 [3]) | SAM/MTA Ratio (PRMT5 [3]) | IC50 [4] | IC50 [5] | MTAP Intact/Deleted Ratio [5]
1 | CC(=O)N1CCC(Nc2cc(C(=O)NC[C@@H](O)[C@@H]3Cc4ccc(OCc5ocnc5C)cc4CN3)cc(N3CCCCC3)n2)CC1 [Compound 40, 2-[(1-acetyl-4-piperidyl)amino]-N-[(2R)-2-hydroxy-2-[(3S)-7-[(4-methyloxazol-5-yl)methoxy]-1,2,3,4-tetrahydroisoquinolin-3-yl]ethyl]-6-(1-piperidyl)pyridine-4-carboxamide] | 0.05 to 0.5 µM | 0.05 to 0.5 µM | < 0.05 µM | A (a Ki ratio greater than or equal to 10 fold between the Ki in the presence of SAM and the Ki in the presence of MTA) | 1 to 10 µM | < 1 µM | A* (an IC50 ratio greater than or equal to 10 fold between the IC50 in the HAP1 MTAP-intact cell line and the HAP1 MTAP-deleted cell line)
2 | CC(=O)N1CC(Nc2cc(C(=O)NC[C@@H](O)[C@@H]3Cc4ccc(OCc5ocnc5C)cc4CN3)nc(N3CC4CCC3C4)n2)C1 (stereo partly drawn) [Compound 53, 6-[(1-acetylazetidin-3-yl)amino]-2-(3-azabicyclo[2.2.1]heptan-3-yl)-N-[(2R)-2-hydroxy-2-[(3S)-7-[(4-methyloxazol-5-yl)methoxy]-1,2,3,4-tetrahydroisoquinolin-3-yl]ethyl]pyrimidine-4-carboxamide] | 0.05 to 0.5 µM | 0.05 to 0.5 µM | < 0.05 µM | A (a Ki ratio greater than or equal to 10 fold between the Ki in the presence of SAM and the Ki in the presence of MTA) | 1 to 10 µM | < 1 µM | A* (an IC50 ratio greater than or equal to 10 fold between the IC50 in the HAP1 MTAP-intact cell line and the HAP1 MTAP-deleted cell line)
3 | CC(=O)N1CC(Nc2cc(C(=O)NC[C@@H](O)[C@@H]3Cc4ccc(OCc5ocnc5C)cc4CN3)nc(N3CCCC3)n2)C1 [Compound 61, 6-[(1-acetylazetidin-3-yl)amino]-N-[(2R)-2-hydroxy-2-[(3S)-7-[(4-methyloxazol-5-yl)methoxy]-1,2,3,4-tetrahydroisoquinolin-3-yl]ethyl]-2-pyrrolidin-1-yl-pyrimidine-4-carboxamide] | 0.05 to 0.5 µM | 0.05 to 0.5 µM | < 0.05 µM | A (a Ki ratio greater than or equal to 10 fold between the Ki in the presence of SAM and the Ki in the presence of MTA) | ≥ 10 µM | < 1 µM | A* (an IC50 ratio greater than or equal to 10 fold between the IC50 in the HAP1 MTAP-intact cell line and the HAP1 MTAP-deleted cell line)
4 | Cc1ncoc1COc1ccc2c(c1)CN[C@H]([C@H](O)CNC(=O)c1cc(NC3CCC3)ccn1)C2 [Compound 35, 4-(cyclobutylamino)-N—((R)-2-hydroxy-2-((S)-7-((4-methyloxazol-5-yl)methoxy)-1,2,3,4-tetrahydroisoquinolin-3-yl)ethyl)picolinamide] | 0.05 to 0.5 µM | 0.5 to 5 µM | < 0.05 µM | A (a Ki ratio greater than or equal to 10 fold between the Ki in the presence of SAM and the Ki in the presence of MTA) | 1 to 10 µM | < 1 µM | A* (an IC50 ratio greater than or equal to 10 fold between the IC50 in the HAP1 MTAP-intact cell line and the HAP1 MTAP-deleted cell line)
5 | CCOc1cc(C(=O)N2[C@@H]3CCC[C@H]2COC3)ccc1C(=O)NC[C@@H](O)[C@@H]1Cc2ccc(OCc3cnco3)cc2CN1 [Compound 13, 4-((1R,5S)-3-oxa-9-azabicyclo[3.3.1]nonane-9-carbonyl)-2-ethoxy-N—((R)-2-hydroxy-2-((S)-7-(oxazol-5-ylmethoxy)-1,2,3,4-tetrahydroisoquinolin-3-yl)ethyl)benzamide] | 0.05 to 0.5 µM | 0.5 to 5 µM | 0.05 to 0.5 µM | A (a Ki ratio greater than or equal to 10 fold between the Ki in the presence of SAM and the Ki in the presence of MTA) | 1 to 10 µM | < 1 µM | A* (an IC50 ratio greater than or equal to 10 fold between the IC50 in the HAP1 MTAP-intact cell line and the HAP1 MTAP-deleted cell line)
